For one assay, the target named is Histone deacetylase 1 (Homo sapiens, UniProt Q13547). Briefly: Inhibition of human HDAC1 using fluorogenic HDAC substrate.
A further assay concerns the target T1, Histone deacetylase 8 (Homo sapiens, UniProt Q9BY41).
T1 sequence (Q9BY41 whole entry): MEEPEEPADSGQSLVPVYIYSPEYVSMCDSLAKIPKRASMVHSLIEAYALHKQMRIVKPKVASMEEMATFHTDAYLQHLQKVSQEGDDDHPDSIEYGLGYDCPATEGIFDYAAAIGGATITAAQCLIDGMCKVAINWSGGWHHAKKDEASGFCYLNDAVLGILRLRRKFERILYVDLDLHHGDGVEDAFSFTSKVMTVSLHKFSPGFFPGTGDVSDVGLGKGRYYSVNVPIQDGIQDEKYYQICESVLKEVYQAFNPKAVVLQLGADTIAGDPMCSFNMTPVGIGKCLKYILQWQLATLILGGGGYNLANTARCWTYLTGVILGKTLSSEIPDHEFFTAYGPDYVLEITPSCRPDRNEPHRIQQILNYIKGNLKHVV
Briefly: Inhibition of human HDAC8 using fluorogenic HDAC substrate.

Another assay deals with Histone deacetylase 2 (Homo sapiens, UniProt Q92769). Briefly: Inhibition of human HDAC2 using fluorogenic HDAC substrate.
The next assay concerns the target Histone deacetylase 5 (Homo sapiens, UniProt Q9UQL6). Briefly: Inhibition of human HDAC5 using fluorogenic HDAC substrate.
Another assay has as its target T2, Histone deacetylase 11 (Homo sapiens, UniProt Q96DB2).
T2 sequence (Q96DB2 whole entry): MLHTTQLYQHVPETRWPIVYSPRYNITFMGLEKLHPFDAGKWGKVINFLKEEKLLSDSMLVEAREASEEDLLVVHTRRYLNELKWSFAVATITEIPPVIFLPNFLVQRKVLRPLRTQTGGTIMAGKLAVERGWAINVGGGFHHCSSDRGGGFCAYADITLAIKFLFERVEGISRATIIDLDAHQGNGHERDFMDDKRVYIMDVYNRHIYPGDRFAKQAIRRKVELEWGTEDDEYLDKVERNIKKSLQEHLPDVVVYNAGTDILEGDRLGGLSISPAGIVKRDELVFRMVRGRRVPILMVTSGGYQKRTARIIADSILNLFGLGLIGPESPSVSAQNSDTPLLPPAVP
Briefly: Inhibition of human HDAC11 using fluorogenic HDAC substrate.

For the next assay, the target named is T3, Histone deacetylase 7 (Homo sapiens, UniProt Q8WUI4).
T3 sequence (Q8WUI4 whole entry): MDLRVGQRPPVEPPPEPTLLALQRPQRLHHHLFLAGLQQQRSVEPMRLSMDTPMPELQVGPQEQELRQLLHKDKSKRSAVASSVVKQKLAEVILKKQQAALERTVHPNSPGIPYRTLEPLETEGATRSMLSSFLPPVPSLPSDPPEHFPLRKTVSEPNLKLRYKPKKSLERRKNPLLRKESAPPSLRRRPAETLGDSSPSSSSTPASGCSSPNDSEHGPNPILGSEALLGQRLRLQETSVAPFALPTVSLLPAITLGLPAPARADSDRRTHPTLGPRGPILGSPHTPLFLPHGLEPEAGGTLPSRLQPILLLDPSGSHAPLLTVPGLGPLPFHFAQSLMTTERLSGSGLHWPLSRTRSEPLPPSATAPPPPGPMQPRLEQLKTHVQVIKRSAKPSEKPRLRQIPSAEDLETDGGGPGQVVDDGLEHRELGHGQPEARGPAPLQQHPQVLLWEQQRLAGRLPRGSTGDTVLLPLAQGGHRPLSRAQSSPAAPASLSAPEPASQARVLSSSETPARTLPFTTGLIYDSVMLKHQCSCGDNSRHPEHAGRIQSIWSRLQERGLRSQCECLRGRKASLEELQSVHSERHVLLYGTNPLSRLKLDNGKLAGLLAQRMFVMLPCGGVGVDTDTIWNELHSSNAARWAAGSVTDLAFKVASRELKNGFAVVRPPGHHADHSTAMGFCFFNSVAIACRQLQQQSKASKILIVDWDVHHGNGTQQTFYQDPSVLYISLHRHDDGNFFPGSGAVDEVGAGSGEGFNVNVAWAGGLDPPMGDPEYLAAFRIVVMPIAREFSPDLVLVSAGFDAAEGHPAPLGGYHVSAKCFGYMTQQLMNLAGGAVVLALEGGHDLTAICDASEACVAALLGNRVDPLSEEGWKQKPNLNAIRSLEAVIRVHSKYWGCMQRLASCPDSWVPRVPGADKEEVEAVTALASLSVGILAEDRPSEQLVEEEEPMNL
Briefly: Inhibition of human HDAC7 using fluorogenic HDAC substrate.

For assay [1], the target named is T4, Protein deacetylase HDAC6 (Homo sapiens, UniProt Q9UBN7).
T4 sequence (Q9UBN7 whole entry): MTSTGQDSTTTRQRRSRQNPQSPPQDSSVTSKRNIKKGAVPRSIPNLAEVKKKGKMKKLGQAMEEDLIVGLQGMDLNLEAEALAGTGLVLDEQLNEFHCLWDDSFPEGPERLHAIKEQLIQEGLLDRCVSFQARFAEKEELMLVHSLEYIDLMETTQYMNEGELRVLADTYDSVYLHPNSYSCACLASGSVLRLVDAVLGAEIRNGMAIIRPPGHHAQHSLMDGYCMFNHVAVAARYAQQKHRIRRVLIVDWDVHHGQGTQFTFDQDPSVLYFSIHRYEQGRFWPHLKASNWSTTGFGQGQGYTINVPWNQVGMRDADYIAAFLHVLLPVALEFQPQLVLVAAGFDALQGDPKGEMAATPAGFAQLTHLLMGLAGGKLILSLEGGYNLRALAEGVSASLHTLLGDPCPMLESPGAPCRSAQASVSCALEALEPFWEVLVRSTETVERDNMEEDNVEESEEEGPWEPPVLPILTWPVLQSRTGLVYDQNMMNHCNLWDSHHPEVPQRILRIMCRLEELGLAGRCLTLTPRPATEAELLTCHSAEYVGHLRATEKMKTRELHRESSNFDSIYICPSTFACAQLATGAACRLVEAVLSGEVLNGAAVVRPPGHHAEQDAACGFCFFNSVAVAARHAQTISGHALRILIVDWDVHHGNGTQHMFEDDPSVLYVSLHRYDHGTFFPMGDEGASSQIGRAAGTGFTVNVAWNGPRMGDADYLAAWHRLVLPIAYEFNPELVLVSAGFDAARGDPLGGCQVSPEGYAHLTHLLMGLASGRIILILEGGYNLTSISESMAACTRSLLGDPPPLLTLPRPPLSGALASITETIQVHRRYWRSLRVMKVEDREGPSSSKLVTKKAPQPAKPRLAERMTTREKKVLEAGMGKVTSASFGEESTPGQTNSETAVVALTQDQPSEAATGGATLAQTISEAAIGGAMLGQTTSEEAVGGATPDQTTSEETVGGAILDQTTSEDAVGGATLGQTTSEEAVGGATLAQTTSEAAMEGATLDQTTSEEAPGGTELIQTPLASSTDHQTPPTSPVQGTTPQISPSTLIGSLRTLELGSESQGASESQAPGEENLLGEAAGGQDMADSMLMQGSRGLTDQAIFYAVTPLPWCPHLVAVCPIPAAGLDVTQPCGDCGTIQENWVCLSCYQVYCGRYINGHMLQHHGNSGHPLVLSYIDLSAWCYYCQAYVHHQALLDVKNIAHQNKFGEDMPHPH
Briefly: Inhibition of human HDAC6 using fluorogenic HDAC substrate.

SMILES strings stand for the structures.

Histone deacetylase 5, sequence (Q9UQL6 whole entry): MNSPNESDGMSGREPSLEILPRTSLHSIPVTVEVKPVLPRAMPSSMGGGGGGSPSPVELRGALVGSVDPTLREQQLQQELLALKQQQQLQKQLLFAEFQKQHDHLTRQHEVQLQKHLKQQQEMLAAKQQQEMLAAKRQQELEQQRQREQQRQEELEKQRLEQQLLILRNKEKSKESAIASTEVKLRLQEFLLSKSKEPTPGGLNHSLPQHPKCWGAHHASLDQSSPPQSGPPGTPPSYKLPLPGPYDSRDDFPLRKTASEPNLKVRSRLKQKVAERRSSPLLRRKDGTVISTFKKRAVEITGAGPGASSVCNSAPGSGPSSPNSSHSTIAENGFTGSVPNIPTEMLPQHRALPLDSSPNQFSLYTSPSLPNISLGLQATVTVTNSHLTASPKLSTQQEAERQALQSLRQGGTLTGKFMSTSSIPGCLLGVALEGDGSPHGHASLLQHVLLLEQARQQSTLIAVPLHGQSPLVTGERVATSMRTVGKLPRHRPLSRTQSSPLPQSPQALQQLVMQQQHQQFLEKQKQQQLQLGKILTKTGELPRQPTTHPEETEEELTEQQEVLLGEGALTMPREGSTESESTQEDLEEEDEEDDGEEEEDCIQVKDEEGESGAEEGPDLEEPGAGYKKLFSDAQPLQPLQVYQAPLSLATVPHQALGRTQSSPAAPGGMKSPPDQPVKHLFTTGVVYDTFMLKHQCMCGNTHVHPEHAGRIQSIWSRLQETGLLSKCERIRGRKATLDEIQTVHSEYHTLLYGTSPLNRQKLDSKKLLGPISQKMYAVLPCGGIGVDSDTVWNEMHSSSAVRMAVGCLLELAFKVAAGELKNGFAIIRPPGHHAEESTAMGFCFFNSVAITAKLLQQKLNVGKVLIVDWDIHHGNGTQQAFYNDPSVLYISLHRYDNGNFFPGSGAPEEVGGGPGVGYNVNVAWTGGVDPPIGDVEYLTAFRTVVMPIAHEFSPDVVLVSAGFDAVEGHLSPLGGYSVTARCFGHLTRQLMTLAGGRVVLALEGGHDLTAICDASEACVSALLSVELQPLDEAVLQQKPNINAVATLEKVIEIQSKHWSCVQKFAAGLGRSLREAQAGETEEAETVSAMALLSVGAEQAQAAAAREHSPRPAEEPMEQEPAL
Histone deacetylase 1, sequence (Q13547 whole entry): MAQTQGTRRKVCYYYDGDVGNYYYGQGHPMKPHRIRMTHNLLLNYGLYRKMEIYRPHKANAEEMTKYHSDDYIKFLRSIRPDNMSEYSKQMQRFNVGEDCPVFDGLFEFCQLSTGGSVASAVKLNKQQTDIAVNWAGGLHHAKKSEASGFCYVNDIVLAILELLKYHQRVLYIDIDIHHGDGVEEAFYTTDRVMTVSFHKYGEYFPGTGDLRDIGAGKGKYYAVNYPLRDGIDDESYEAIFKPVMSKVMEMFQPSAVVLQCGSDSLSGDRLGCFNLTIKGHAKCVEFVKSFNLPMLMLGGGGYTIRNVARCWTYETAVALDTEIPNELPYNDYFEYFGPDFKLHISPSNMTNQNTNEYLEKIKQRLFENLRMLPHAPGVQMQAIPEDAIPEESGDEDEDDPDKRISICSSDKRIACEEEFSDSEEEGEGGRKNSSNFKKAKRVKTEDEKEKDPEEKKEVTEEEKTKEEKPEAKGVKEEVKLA
Histone deacetylase 2, sequence (Q92769 whole entry): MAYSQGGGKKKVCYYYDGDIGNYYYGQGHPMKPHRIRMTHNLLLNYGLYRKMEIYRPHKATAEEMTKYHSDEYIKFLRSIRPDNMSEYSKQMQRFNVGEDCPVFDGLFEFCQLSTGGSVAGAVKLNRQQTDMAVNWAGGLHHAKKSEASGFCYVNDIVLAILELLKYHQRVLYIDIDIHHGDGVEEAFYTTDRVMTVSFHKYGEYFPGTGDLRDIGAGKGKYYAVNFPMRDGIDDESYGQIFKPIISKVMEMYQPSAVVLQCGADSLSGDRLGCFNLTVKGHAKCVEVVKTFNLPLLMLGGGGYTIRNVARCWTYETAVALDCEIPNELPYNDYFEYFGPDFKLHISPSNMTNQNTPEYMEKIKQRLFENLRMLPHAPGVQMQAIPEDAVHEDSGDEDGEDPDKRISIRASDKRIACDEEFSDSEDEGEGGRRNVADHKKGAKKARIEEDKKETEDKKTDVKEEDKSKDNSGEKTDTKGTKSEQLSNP

As a reminder, the IC50 is the concentration at which inhibition is half-maximal. Take `O=C(NO)c1ccc(CN2c3ccccc3CC[C@@H]3CCCC[C@H]32)cc1`: the IC50 on Histone deacetylase 1 is 4.9 µM; against Histone deacetylase 8, 2.9 µM; at Histone deacetylase 2, 26 µM; at Histone deacetylase 5 it was 12 µM; on Histone deacetylase 11, 0.54 µM; on Histone deacetylase 7, > 30 µM. In assay [1], the IC50 was determined as 0.006 µM.

The record behind these values is ChEMBL document CHEMBL4422610, “HDAC as onco target: Reviewing the synthetic approaches with SAR study of their inhibitors” (Eur J Med Chem, 2018).
